In the oligonucleotide strings, read from the 5' end, every base follows the letter of its sugar. An asterisk marks phosphorothioate; unmarked linkages are phosphodiester. Other units and linkages are bracketed, terminal groups are in braces. A string of capitals states the bases alone. e = 2'-O-(2-methoxyethyl) (MOE); [5mC] = 5-methylcytosine; d = 2'-deoxy (DNA)
Legend:
[1] = Cynomolgus monkeys: body and organ weights (Example 29); format: in vivo
Protocol: Groups, each consisting of two male and three female monkeys, were injected subcutaneously with ISIS 416838, ISIS 416850, ISIS 416858, ISIS 416864, or ISIS 417002 in escalating doses. Antisense oligonucleotide was administered to the monkeys at 5 mg/kg three times per a week for week 1; 5 mg/kg twice per week for weeks 2 and 3; 10 mg/kg three times per week for week 4; 10 mg/kg twice per week for weeks 5 and 6; 25 mg/kg three times per week for week 7; and 25 mg/kg twice per week for weeks 8, 9, 10, 11, and 12. One control group, consisting of two male and three female monkeys, was injected subcutaneously with PBS according to the same dosing regimen. An additional experimental group, consisting of two male and three female monkeys, was injected subcutaneously with ISIS 416850 in a chronic, lower dose regimen. Antisense oligonucleotide was administered to the monkeys at 5 mg/kg three times per week for week 1; 5 mg/kg twice per week for week 2 and 3; 10 mg/kg three times per week for week 4; and 10 mg/kg twice per week for weeks 5 to 12. Body weights were measured weekly. Blood samples were collected 14 days and 5 days before the start of treatment and subsequently once per week for Factor XI protein activity analysis in plasma and measurement of various hematologic factors. On day 85, the monkeys were euthanized by exsanguination while under deep anesthesia, and organs harvested for further analysis.
Body weights were taken once weekly throughout the dosing regimen. […] Organ weights were taken after the animals were euthanized and livers, kidneys and spleens were harvested and weighed. […] The ISIS oligonucleotide, ISIS 416850, given with the chronic dose regimen is distinguished from the other oligonucleotides with an asterisk (*).

[2] = system: DSS-induced colitis model; assay: Colitis Study F: body weight, stool scores, colon length and weight; format: in vivo, Swiss Webb mice; conditions: DSS-treated mice, 50 mg/kg, Day 8
murine Factor XI protein = assay: In vivo antisense inhibition of murine Factor XI: plasma protein analysis (Example 10); conditions: BALB/c mice; for % inhibition: Factor XI protein, relative to PBS control
Protocol: BALB/c mice were injected with 5 mg/kg, 10 mg/kg, 25 mg/kg, or 50 mg/kg of ISIS 404057 or ISIS 404071 twice a week for 3 weeks. A control group of mice was injected with phosphate buffered saline (PBS) twice a week for 3 weeks. Mice were sacrificed 5 days after receiving the last dose. Whole liver was harvested for RNA analysis and plasma was collected for protein analysis.
Results are presented as percent inhibition of Factor XI, relative to PBS control.

P-selectin = assay: Colitis Study C: serum P-selectin; format: in vivo, mice
Protocol: The effect of antisense inhibition of Factor XI on serum P-selectin levels was evaluated in this study. DSS administration led to increase in P-selectin levels which was reduced by treatment with ISIS 404071.

[3] = system: DSS-induced colitis model; assay: Colitis Study F: body weight, stool scores, colon length and weight; format: in vivo, Swiss Webb mice
Protocol: In a first group of 8 Swiss Webb mice, 50 mg/kg of ISIS 404071 was injected subcutaneously twice a week for 3 weeks. Two control groups of 8 mice each were injected with PBS twice a week for 3 weeks. After the oligonucleotide treatment, 4% DSS in water was administered ad libitum for 7 days to the experimental group and one PBS control group. Mice were sacrificed at the end of the study on day 7 after DSS was administered.
Mice in all groups were weighed at day 0 and daily for 7 days after administration of DSS. Mice were sacrificed at the end of the study on day 7 after DSS was administered and their colon lengths and weight were measured as shown in Table 45.

Factor XI mRNA = assay: Colitis Study E: Factor XI mRNA levels; format: in vivo, Swiss Webb mice; conditions: compared to untreated PBS control; for % inhibition of Factor XI mRNA levels: DSS-treated mice, 40 mpk
Protocol: (§1) Two groups 8 Swiss Webb mice were dosed with 40 mg/kg of ISIS 404071 injected subcutaneously twice a week for 3 weeks. Two control groups of 8 Swiss Webb mice were dosed with PBS subcutaneously twice a week for 3 weeks. Both the ASO treated groups and one of the control groups were then given 4% DSS in distilled water for 7 days ad libitum. One of the ASO and DSS treated groups was also given intravenous injections of 20 μg of recombinant human Factor XI protein (Haematologic Technologies Inc.) for 7 consecutive days, starting the day before DSS treatment. Mice were sacrificed at the end of the study on day 7 after DSS was administered.

[4] = system: thrombin-antithrombin (TAT) complexes; assay: Colitis Study E: TAT levels; format: in vivo, Swiss Webb mice; conditions: for TAT levels: colon, DSS-treated mice, day 7, 40 mpk
Protocol: as §1
Mice with dextran sodium sulfate (DSS)-induced colitis have elevated level of thrombin-antithrombin (TAT) complexes in blood (Anthoni, C. et al., J. Exp. Med. 204: 1595-1601, 2007) and is also observed in patients with ulcerative colitis (Kume, K. et al., Intern Med. 2007. 46: 1323-9). The effect of antisense inhibition of Factor XI on TAT levels in the […] was evaluated (Siemens Healthcare Diagnostics, Deerfield, Ill.) at the end of the study on day 7 after DSS was administered and the results are presented in Table 38.

[5] = DSS-treated mice, 50 mg/kg, day 7
[6] = plus human recombinant FXI 20 ug/mouse/day

Substance: ISIS 416850: gapmer of Table 8 (antisense eT*eG*e[5mC]*eA*e[5mC]*dA*dG*dT*dT*dT*d[5mC]*dT*dG*dG*d[5mC]*eA*eG*eG*e[5mC]*e[5mC])
- Body weight ([1]; chronic, lower dose regimen (*) 5 then 10 mg/kg s.c., day 1): 2665 g
- Body weight ([1]; chronic, lower dose regimen (*) 5 then 10 mg/kg s.c., day 8): 2579 g
- Body weight ([1]; chronic, lower dose regimen (*) 5 then 10 mg/kg s.c., day 15): 2607 g
- Body weight ([1]; chronic, lower dose regimen (*) 5 then 10 mg/kg s.c., day 22): 2661 g
- Body weight ([1]; chronic, lower dose regimen (*) 5 then 10 mg/kg s.c., day 29): 2667 g
- Body weight ([1]; chronic, lower dose regimen (*) 5 then 10 mg/kg s.c., day 36): 2656 g
- Body weight ([1]; chronic, lower dose regimen (*) 5 then 10 mg/kg s.c., day 43): 2670 g
- Body weight ([1]; chronic, lower dose regimen (*) 5 then 10 mg/kg s.c., day 50): 2679 g
- Body weight ([1]; escalating doses 5, 10, 25 mg/kg s.c., day 1): 2572 g
- Body weight ([1]; escalating doses 5, 10, 25 mg/kg s.c., day 8): 2430 g
- Body weight ([1]; escalating doses 5, 10, 25 mg/kg s.c., day 15): 2474 g
- Body weight ([1]; escalating doses 5, 10, 25 mg/kg s.c., day 22): 2514 g
- Body weight ([1]; escalating doses 5, 10, 25 mg/kg s.c., day 29): 2515 g
- Body weight ([1]; escalating doses 5, 10, 25 mg/kg s.c., day 36): 2545 g
- Body weight ([1]; escalating doses 5, 10, 25 mg/kg s.c., day 43): 2544 g
- Body weight ([1]; escalating doses 5, 10, 25 mg/kg s.c., day 50): 2613 g
- Body weight ([1]; escalating doses 5, 10, 25 mg/kg s.c., day 57): 2629 g
- Body weight ([1]; escalating doses 5, 10, 25 mg/kg s.c., day 64): 2642 g
- Body weight ([1]; escalating doses 5, 10, 25 mg/kg s.c., day 71): 2769 g
- Body weight ([1]; escalating doses 5, 10, 25 mg/kg s.c., day 78): 2660 g

Substance: TGGTAATCCACTTTCAGAGG (eT*eG*eG*eT*eA*dA*dT*d[5mC]*d[5mC]*dA*d[5mC]*dT*dT*dT*d[5mC]*eA*eG*eA*eG*eG) [ISIS 404071, 5-10-5 MOE gapmer targeting murine Factor XI, target start site 869]
- Stool score [2]: 2
- Factor XI protein (in words) (murine Factor XI protein; 5-50 mg/kg twice a week for 3 weeks): significant dose-dependent reduction of Factor XI protein
- % inhibition (murine Factor XI protein; 5 mg/kg twice a week for 3 weeks): 39%
- % inhibition (murine Factor XI protein; 10 mg/kg twice a week for 3 weeks): 67%
- % inhibition (murine Factor XI protein; 25 mg/kg twice a week for 3 weeks): 89%
- % inhibition (murine Factor XI protein; 50 mg/kg twice a week for 3 weeks): 96%
- P-selectin levels (in words) (P-selectin): reduced
- P-selectin (P-selectin; DSS-induced colitis mice): 83 ng/mL
- body weight (in words) ([3]; Colitis Study F, 50 mg/kg, compared to placebo): did not significantly affect body weight
- Body weight (day 0) ([3]; DSS-treated mice, 50 mg/kg s.c. twice a week for 3 weeks, day 0): 28 grams
- Body weight (day 7) ([3]; DSS-treated mice, 50 mg/kg s.c. twice a week for 3 weeks, day 7): 24.7 grams
- Stool score ([3]; DSS-treated mice, 50 mg/kg, Day 3): 0
- Stool score ([3]; DSS-treated mice, 50 mg/kg, Day 4): 0.25
- Stool score ([3]; DSS-treated mice, 50 mg/kg, Day 5): 1
- Stool score ([3]; DSS-treated mice, 50 mg/kg, Day 6): 1
- Stool score ([3]; DSS-treated mice, 50 mg/kg, Day 7): 1
- Colon length [3, 5]: 7.8 cm
- Colon weight [3, 5]: 339.3 mg
- Factor XI levels (in words) (Factor XI mRNA; Colitis Study E, 40 mg/kg): significantly decreased
- % inhibition of Factor XI mRNA levels (Factor XI mRNA; no human recombinant FXI): 82%
- % inhibition of Factor XI mRNA levels (Factor XI mRNA; [6]): 83%
- TAT levels (in words) ([4]; Colitis Study E, day 7): decreased
- TAT levels ([4]; no human recombinant FXI): 0.1 ng/mg protein
- TAT levels [4, 6]: 0.8 ng/mg protein
